Literature values, collected in article PMC12650809, “Evolving Therapeutic Landscape of ROS1-Positive Non-Small Cell Lung Cancer: An Updated Review” (Current Oncology, 2025).
Where two headings read alike, the source gives them in different places. Marks after values point to notes of the source that are not given here. Values belong to the compound of their own block, whether it stands above or below them.

Assays:
[1] = tested on: ROS1^L2086F; set-up: method as in PMID 38070596; details: for resistance or activity with L2086F: ATP-binding pocket; for resistance or sensitivity conferred by ROS1^L2086F: L2086F alone or in combination with G2032R or S1986F, preclinical models
[2] = tested on: ROS1-positive NSCLC; details: for TKI-Naive ORR (%) / mPFS (Months): TKI-naïve patients; for IC-ORR (%): TKI-naïve patients evaluable for intracranial ORR
[3] = tested on: ROS1-positive NSCLC; set-up: method as in earlier work; details: TKI-pretreated patients; WCLC 2025 Abstract 4540
[4] = tested on: ROS1^G2032R; set-up: method as in PMID 38070596; details: solvent-front substitution
[5] = tested on: ROS1-positive NSCLC
[6] = tested on: ROS1-positive NSCLC; remark: listed apart in the source
[7] = tested on: advanced ROS1-positive NSCLC
[8] = tested on: ROS1-positive NSCLC; set-up: method as in PMID 28520527
[9] = 13 patients harboring ROS1^G2032R
[10] = previously treated with a ROS1 TKI, n = 113
[11] = isolated intracranial progression on crizotinib, n = 18
[12] = eight patients with baseline BMs

SMILES: CCc1nc(C(N)=O)c(Nc2ccc(N3CCC(N4CCN(C)CC4)CC3)c(OC)c2)nc1NC1CCOCC1 [gilteritinib]
- resistance or activity with L2086F [1]: preclinical efficacy

SMILES: C[C@@H](N)COc1ccc(-c2cnc3ccc(N[C@H](C)c4cccc(F)c4)nn23)cc1 [Taletrectinib, taletrectinib]
- TKI-Naive ORR (%) [2]: 88.8%
- mPFS (Months) [2]: 45.6 Months
- IC-ORR (%) [2]: 76.5 ^e %
- IC-ORR (%) [3]: 65.6%
- TKI-Pretreated ORR (%) [3]: 55.8%
- mPFS (Months) [3]: 9.7 Months
- resistance or sensitivity with ROS1^G2032R [4]: some sensitivity
- resistance or activity with L2086F [1]: cross-resistance
- rate of treatment discontinuation due to toxicity [5]: 6.5%
- objective response rate [5, 9]: 61.5%
- patients with objective response (number) [5, 9]: 8
- diarrhea ([5]; AEs, predominantly grade 1): 61%
- nausea ([5]; AEs, predominantly grade 1): 44%
- transaminase elevation ([5]; AEs, predominantly grade 1): 70%
- confirmed ORR ([5]; TKI-naïve patients, n = 160): 88.8%
- median DOR ([5]; TKI-naïve patients, n = 160): 44.2 months
- median PFS ([5]; TKI-naïve patients, n = 160): 45.6 months
- intracranial ORR ([5]; TKI-naïve, measurable BMs): 76.5%
- median intracranial DOR ([5]; TKI-naïve, measurable BMs): 14.7 months
- dizziness ([5]; neurological events): 21%
- dysgeusia ([5]; neurological events): 15%
- intracranial ORR ([5]; previously treated with a ROS1 TKI): 65.6%
- ORR [5, 10]: 55.8%
- median DOR [5, 10]: 16.6 months
- median PFS [5, 10]: 9.7 months
- Notable AEs: QT prolongation [6]: 18%
- Notable AEs: diarrhea [6]: 61%
- Notable AEs: dizziness [6]: 15%
- Notable AEs: increased AST/ALT [6]: 70%
- Notable AEs: nausea [6]: 44%
- Notable AEs: vomiting [6]: 41%
- Main Grade ≥ 3 AEs: QT prolongation ([6]; grade ≥ 3): 3%
- Main Grade ≥ 3 AEs: anemia ([6]; grade ≥ 3): 3%
- Main Grade ≥ 3 AEs: diarrhea ([6]; grade ≥ 3): 3%
- Main Grade ≥ 3 AEs: increased AST/ALT ([6]; grade ≥ 3): 9%
- Main Grade ≥ 3 AEs: neutropenia ([6]; grade ≥ 3): 4%

SMILES: COc1cc2nccc(Oc3ccc(NC(=O)C4(C(=O)Nc5ccc(F)cc5)CC4)cc3)c2cc1OC [cabozantinib]
- resistance or sensitivity conferred by ROS1^L2086F [1]: potentially retaining sensitivity
- resistance or activity with L2086F [1]: preclinical efficacy

SMILES: CN1CCN(c2ccc(C(=O)Nc3n[nH]c4ccc(Cc5cc(F)cc(F)c5)cc34)c(NC3CCOCC3)c2)CC1 [Entrectinib, entrectinib]
- TKI-Naive ORR (%) [2]: 68%
- mPFS (Months) [2]: 15.7 Months
- IC-ORR (%) [2]: 80 ^a %
- resistance or sensitivity with ROS1^G2032R [4]: high-level resistance
- resistance or sensitivity conferred by ROS1^L2086F [1]: cross-resistance
- ORR ([7]; 168 TKI-naïve patients): 68%
- complete responses ([7]; 168 TKI-naïve patients): 13%
- median DOR ([7]; 168 TKI-naïve patients): 20.5 months
- median OS ([7]; 168 TKI-naïve patients): 47.8 months
- median PFS ([7]; 168 TKI-naïve patients): 15.7 months
- median intracranial DOR ([7]; baseline BMs): 12.9 months
- intracranial ORR ([7]; baseline BMs with measurable disease): 80%
- global ORR [7, 11]: 11%
- intracranial ORR [7, 11]: 19%
- median PFS [7, 11]: 4.7 months

- dose reductions required [8]: 68%
SMILES: Cc1cc(Nc2ncc(Cl)c(Nc3ccccc3S(=O)(=O)C(C)C)n2)c(OC(C)C)cc1C1CCNCC1 [Ceritinib, ceritinib]
- TKI-Naive ORR (%) [2]: 67%
- mPFS (Months) [2]: 19.3 Months
- IC-ORR (%) [2]: 25 ^b %
- ORR ([8]; 32 patients): 62%
- median DOR ([8]; 32 patients): 21 months
- anorexia ([8]; AEs, predominantly grade 1–2): 56%
- diarrhea ([8]; AEs, predominantly grade 1–2): 85%
- nausea ([8]; AEs, predominantly grade 1–2): 72%
- vomiting ([8]; AEs, predominantly grade 1–2): 45%
- ORR ([8]; crizotinib-naïve patients): 67%
- median OS ([8]; crizotinib-naïve patients): 24 months
- median PFS ([8]; crizotinib-naïve patients): 19.3 months
- CNS disease control rate [8, 12]: 63%
- patients achieving an objective intracranial response [8, 12]: two
